Reference: ChEMBL document CHEMBL1138227, “N1-substituted thymine derivatives as mitochondrial thymidine kinase (TK-2) inhibitors” (J Med Chem, 2006)

Legend:
[1] = Cytotoxicity against human OST TK- cells expressing HSV1 TK in presence of 10 uM 1-[6-[1,1-(diphenyl)-1-(4-pyridyl)methoxy]hexyl]thymine; format: cell-based
[2] = Cytotoxicity against human OST TK- cells expressing HSV1 TK in presence of 5 uM 1-[6-[1,1-(diphenyl)-1-(4-pyridyl)methoxy]hexyl]thymine; format: cell-based
[3] = Cytotoxicity against human OST TK- cells expressing HSV1 TK in presence of 2.5 uM 1-[6-[1,1-(diphenyl)-1-(4-pyridyl)methoxy]hexyl]thymine; format: cell-based
[4] = molecular target: T1, Thymidine kinase 2, mitochondrial (Homo sapiens, UniProt O00142); assay: Inhibition of [3H]methyl dThd phosphorylation by TK2
T1 sequence (O00142 whole entry): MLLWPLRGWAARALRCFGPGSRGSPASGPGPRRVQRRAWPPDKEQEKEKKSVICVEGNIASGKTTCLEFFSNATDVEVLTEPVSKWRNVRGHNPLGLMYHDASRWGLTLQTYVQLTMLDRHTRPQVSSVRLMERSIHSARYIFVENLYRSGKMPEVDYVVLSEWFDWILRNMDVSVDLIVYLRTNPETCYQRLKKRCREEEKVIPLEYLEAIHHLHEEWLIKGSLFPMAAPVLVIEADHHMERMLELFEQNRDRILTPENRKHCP

Thymidine kinase = molecular target: T2, Thymidine kinase (Human alphaherpesvirus 1, UniProt Q9QNF7); assay: Inhibition of [3H]methyl dThd phosphorylation by HSV1 TK
T2 sequence (Q9QNF7 whole entry): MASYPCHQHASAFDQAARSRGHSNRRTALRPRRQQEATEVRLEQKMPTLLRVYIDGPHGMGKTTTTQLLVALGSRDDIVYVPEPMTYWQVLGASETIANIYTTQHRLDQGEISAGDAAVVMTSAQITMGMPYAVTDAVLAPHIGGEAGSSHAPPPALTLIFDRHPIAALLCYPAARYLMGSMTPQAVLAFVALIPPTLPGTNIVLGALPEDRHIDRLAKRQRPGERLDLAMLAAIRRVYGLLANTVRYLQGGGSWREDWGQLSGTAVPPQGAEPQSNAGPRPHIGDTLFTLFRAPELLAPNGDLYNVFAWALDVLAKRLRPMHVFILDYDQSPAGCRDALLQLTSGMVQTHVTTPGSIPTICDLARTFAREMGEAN

[5] = molecular target: T1, Thymidine kinase 2, mitochondrial; assay: Inhibition of TK2
Deoxynucleoside kinase = molecular target: T3, Deoxynucleoside kinase (Drosophila melanogaster, UniProt Q9XZT6); assay: Inhibition of [3H]methyl dThd phosphorylation by Drosophila melanogaster dNK
T3 sequence (Q9XZT6 whole entry): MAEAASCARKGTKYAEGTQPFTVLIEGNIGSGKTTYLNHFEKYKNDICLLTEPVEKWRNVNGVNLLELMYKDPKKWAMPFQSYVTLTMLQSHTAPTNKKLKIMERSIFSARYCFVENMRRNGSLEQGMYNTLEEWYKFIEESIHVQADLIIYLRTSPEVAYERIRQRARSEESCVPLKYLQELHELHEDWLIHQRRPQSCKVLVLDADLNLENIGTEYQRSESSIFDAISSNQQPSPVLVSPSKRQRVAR

[6] = Cytotoxicity against human OST TK- cells expressing HSV1 TK in presence of 10 uM 1-[6-(triphenylmethoxy)hexyl]thymine; format: cell-based
[7] = Cytotoxicity against human OST TK- cells expressing HSV1 TK in presence of 5 uM 1-[6-(triphenylmethoxy)hexyl]thymine; format: cell-based
[8] = Cytotoxicity against human OST TK- cells expressing HSV1 TK in presence of 2.5 uM 1-[6-(triphenylmethoxy)hexyl]thymine; format: cell-based
[9] = Cytotoxicity against human OST TK- cells expressing HSV1 TK; format: cell-based

## Cc1cn(CCCCCCOC(c2ccccc2)(c2ccccc2)c2ccncc2)c(=O)[nH]c1=O
[1]
  IC50: 110 nM
[2]
  IC50: 81 nM
[3]
  IC50: 50 nM
[4]
  IC50: 0.47 µM
Thymidine kinase
  IC50: 2 µM
[5]
  Ki: 290 nM
Deoxynucleoside kinase
  IC50: 2.7 µM
[6]
  IC50: 370 nM
[7]
  IC50: 240 nM
[8]
  IC50: 120 nM

## Cc1cn(C/C=C\COC(c2ccccc2)(c2ccccc2)c2ccncc2)c(=O)[nH]c1=O
[4]
  IC50: 1.8 µM
Thymidine kinase
  IC50: 25 µM
Deoxynucleoside kinase
  IC50: 3.4 µM

## Cc1cn(CCCCCCOC(c2ccccc2)(c2ccccc2)c2ccc(Cl)cc2)c(=O)[nH]c1=O
[4]
  IC50: 1.9 µM
Thymidine kinase
  IC50: 1 µM
Deoxynucleoside kinase
  IC50: 47 µM

## Cc1cn(CCOCCOC(c2ccccc2)(c2ccccc2)c2ccccc2)c(=O)[nH]c1=O
[4]
  IC50: 9.7 µM
Thymidine kinase
  IC50: 17 µM
Deoxynucleoside kinase
  IC50: 56 µM

## Cc1cn(CCCOC(c2ccccc2)(c2ccccc2)c2ccccc2)c(=O)[nH]c1=O
[4]
  IC50: 45 µM
Thymidine kinase
  IC50: 46 µM
Deoxynucleoside kinase
  IC50: 21 µM

## Cc1cn(CCCCCOC(c2ccccc2)(c2ccccc2)c2ccccc2)c(=O)[nH]c1=O
[4]
  IC50: 2.5 µM
Thymidine kinase
  IC50: 32 µM
Deoxynucleoside kinase
  IC50: 15 µM

## Cc1cn(C/C=C\COC(c2ccccc2)(c2ccccc2)c2ccc(Cl)cc2)c(=O)[nH]c1=O
[4]
  IC50: 2.4 µM
Thymidine kinase
  IC50: 18 µM
Deoxynucleoside kinase
  IC50: 5.7 µM

## Nc1nc2c(ncn2COC(CO)CO)c(=O)[nH]1 [GANCICLOVIR]
[1]
  IC50: 110 nM
[2]
  IC50: 81 nM
[3]
  IC50: 50 nM
[6]
  IC50: 41 nM
[7]
  IC50: 33 nM
[8]
  IC50: 18 nM
[9]
  IC50: 1.9 nM

## Cc1cn([C@@H]2O[C@H](CO)[C@@H](O)[C@@H]2O)c(=O)[nH]c1=O
[1]
  IC50: 370 nM
[2]
  IC50: 240 nM
[3]
  IC50: 120 nM
[6]
  IC50: 150 nM
[7]
  IC50: 100 nM
[8]
  IC50: 55 nM
[9]
  IC50: 6.2 nM

## Cc1cn(CCOCCOC(c2ccccc2)(c2ccccc2)c2ccncc2)c(=O)[nH]c1=O
[4]
  IC50: 23 µM
Thymidine kinase
  IC50: 21 µM
Deoxynucleoside kinase
  IC50: 35 µM

## Cc1cn(C/C=C\COC(c2ccccc2)(c2ccccc2)c2ccccc2)c(=O)[nH]c1=O
Deoxynucleoside kinase
  IC50: 3.3 µM

## Cc1cn(CCOCCOC(c2ccccc2)(c2ccccc2)c2ccc(Cl)cc2)c(=O)[nH]c1=O
[4]
  IC50: 5.2 µM
Thymidine kinase
  IC50: 2.7 µM
Deoxynucleoside kinase
  IC50: 45 µM

## Cc1cn(CCCCCCOC(c2ccccc2)(c2ccccc2)c2cc[n+](C)cc2)c(=O)[nH]c1=O
[4]
  IC50: 23 µM
Thymidine kinase
  IC50: 41 µM
Deoxynucleoside kinase
  IC50: 29 µM

## Cc1cn(C/C=C\COC(c2ccccc2)(c2ccccc2)c2cc[n+](C)cc2)c(=O)[nH]c1=O
[4]
  IC50: 114 µM
Thymidine kinase
  IC50: > 500 µM
Deoxynucleoside kinase
  IC50: 144 µM

## CNC(=O)c1ccc(C(OCCCCCCn2cc(C)c(=O)[nH]c2=O)(c2ccccc2)c2ccccc2)cc1
[4]
  IC50: 0.39 µM
Thymidine kinase
  IC50: 0.7 µM
Deoxynucleoside kinase
  IC50: 3.5 µM

## CNC(=O)c1ccc(C(OC/C=C\Cn2cc(C)c(=O)[nH]c2=O)(c2ccccc2)c2ccccc2)cc1
[4]
  IC50: 1.9 µM
Thymidine kinase
  IC50: 42 µM
Deoxynucleoside kinase
  IC50: 1.6 µM

## Cc1cn(CCCCCCOC(c2ccccc2)(c2ccccc2)c2ccccc2)c(=O)[nH]c1=O
[1]
  IC50: 41 nM
[2]
  IC50: 33 nM
[3]
  IC50: 18 nM
[4]
  IC50: 0.5 µM
Thymidine kinase
  IC50: 3.7 µM
Deoxynucleoside kinase
  IC50: 17 µM
[6]
  IC50: 150 nM
[7]
  IC50: 100 nM
[8]
  IC50: 55 nM

## Cc1cn(CCCCCCCCOC(c2ccccc2)(c2ccccc2)c2ccccc2)c(=O)[nH]c1=O
[4]
  IC50: 45 µM
Thymidine kinase
  IC50: > 500 µM
Deoxynucleoside kinase
  IC50: 30 µM

## Cc1cn(CCCCCCCOC(c2ccccc2)(c2ccccc2)c2ccccc2)c(=O)[nH]c1=O
[4]
  IC50: 4.7 µM
Thymidine kinase
  IC50: ≥ 50 µM
Deoxynucleoside kinase
  IC50: 32 µM
